The values that follow come from article PMC4167557 (Nanomedicine (London, England), 2014).

A short description of data set [1]: Pharmacokinetics in mice after single intravenous injection. In kind it is in vivo, BALB/c mice.
A short description of data set [2]: Pharmacokinetics in rats after single intravenous injection. Format: in vivo, Sprague–Dawley rats.
The subject of data set [3] is plasma creatine kinase MB isoenzyme. Put plainly: Plasma CK-MB ELISA. In kind it is in vivo. Particulars: mice, single dose DNR 15 mg/kg. Background: An ELISA detects its analyte on a solid surface through an enzyme-linked reagent.
For data set [4], the system named is plasma cardiac troponin T (cTnT). Put plainly: Plasma cardiac troponin T ELISA. Format: in vivo. Particulars: single dose DNR 15 mg/kg.
In data set [5] the test system is Caspase 3/7 in heart tissues. Put plainly: Caspase-Glo 3/7 assay in heart tissue. Format: in vivo. Particulars: 25 mg/kg, 5 days after treatment.
Data set [6] deals with vital organs (heart, liver, spleen, lung, kidney). As to the kind of experiment: Histological analysis of organ toxicity. Format: in vivo. The settings on record: mice, 5 days after treatment.
For data set [7], the system named is K562-CLL1 xenograft. As to the kind of experiment: Efficacy in mice bearing K562-CLL1 xenograft. Format: in vivo, nude mice. The settings on record: 10 mg/kg every 3 days.
Data set [8] relates to CLL1-expressing cells. The settings on record: therapeutic concentration of approximately 4 µM ref 8; cited from earlier work.
The mark [9] stands for this setting: BALB/c, mouse, plasma, iv, 10 mg/kg.
Setting [10] is: mice, 10 mg/kg DNR iv, mean ± SD.
[11] abbreviates: Sprague-Dawley, rat, plasma, iv, 5 mg/kg.
Where [12] appears, read: rats, 5 mg/kg DNR iv, mean ± SD.

Bridges are numbered along the chain shown (N, C = ends). Where no end group is shown, it is not given here.

As a reminder, the AUC(0-t) is exposure summed from dosing to a finite time, without extrapolation to infinity. A word on the Cmax: it is the peak of the concentration-time curve. What is called MRT is a mean duration of stay, worked out from the concentration-time curve. As a reminder, the Vd is the apparent volume that relates the amount in the body to the concentration in plasma or blood. Low readings indicate confinement near the circulation, high ones extensive tissue distribution. A word on the clearance: it is the volume of plasma or blood freed of the substance per unit of time. A high value points to a high capacity for elimination. For orientation: half-life means how long it takes for the measured level to halve. In data set [1] (setting [9]), `COc1cccc2c1C(=O)c1c(O)c3c(c(O)c1C2=O)C[C@@](O)(C(C)=O)C[C@@H]3O[C@H]1C[C@H](N)[C@H](O)[C@H](C)O1` [Free DNR, daunorubicin] showed an area under the curve AUC(0-t) of 836 ± 151 µg·h/mL, a Cmax of 961000 ± 92000 ng/mL, a mean residence time (MRT) of 16.7 h and a Vd of 0.205 ± 0.048 L/kg. Further, in data set [1] (setting [9]), the clearance turned out to be 0.2 ± 0.03 mL/min/kg and the concentration at 24 h was 13600 ± 1920 ng/mL. In addition, the half-life in data set [1] (BALB/c, mouse, plasma, iv, 10 mg/kg, T 1/2β, mice, 10 mg/kg DNR iv) is 11.9 ± 1 h. The “T 1/2α” value in data set [1] (mice, 10 mg/kg DNR iv, initial half-life in plasma) was found to be 1.11 ± 0.04 min. In data set [1] (setting [10]), the Kel was determined as 3.68 ± 6.35, the α came out at 0.63 ± 0.02 min⁻¹ and the β came to 0.0001 min⁻¹. Further, in data set [2] (setting [11]), the AUC(0-t) came to 3.6 ± 0.79 µg·h/mL, the peak level (Cmax) was 1910 ± 260 ng/mL, the mean residence time (MRT) was determined as 36.2 ± 6.51 h and the volume of distribution (Vd) was determined as 50.8 L/kg. For the same molecule, the clearance in data set [2] (setting [11]) came out at 23.7 ± 5.2 mL/min/kg. For the same molecule, in data set [2] (Sprague-Dawley, rat, plasma, iv, 5 mg/kg, T 1/2β, rats, 5 mg/kg DNR iv), the half-life is 25.4 ± 4.54 h. For the same molecule, in data set [2] (rats, 5 mg/kg DNR iv), the “T 1/2α” value amounted to 56.4 ± 0 s. For the same molecule, in data set [2] (setting [12]), the Kel stood at 0.01 ± 0.00, the α stood at 0.74 ± 0.00 min⁻¹ and the β came out at 0.00 ± 0.00 min⁻¹. Besides, the “plasma CK-MB level” value in data set [3] (3 h after dosing) amounted to 60.02 ± 4.05 U/l. In data set [3] (5 days of follow-up), the “plasma CK-MB level” value is on record as 113.98 ± 10.42 U/l. Moreover, the “cTnT level relative to control mice” value in data set [4] (1 day after dosing) is listed as 9.15 times. The “cTnT level relative to control mice” value in data set [4] (3 days (peak)) is recorded as 15.8 times. Also, in data set [5], the “caspase 3/7 activity in cardiac tissue relative to control mice treated with PBS” value was “about 3.46 times”. For the same molecule, the “histopathological changes in cardiac tissue” value in data set [6] (25 mg/kg) is “marked myocardial toxicity”. The “histopathological changes in spleen” value in data set [6] (low- or high-dose (5 and 25 mg/kg)) was “Marked red pulp hemorrhage-associated compensative sinusoidal histocytic proliferation and extramedullary hematopoiesis”. This molecule showed an overall survival in data set [7] of 44 days.

Take “CLL1-targeting ligand: CLL1-targeting peptide (amino acid sequence: CDLRSAAVC), cyclized via disulfide (disulfide 1-9 (inferred))”: the “increase of micelle-mediated drug delivery to CLL1-expressing cells” value in data set [8] was “approximately threefold”.
